What all share (experiment): cells
Holding throughout (assay type): cell-based

The test system of test [1] is human normal liver cell HL7702. The following applies: human normal hepatocytes HL7702, cultured 48 h, MTT. Here is the method: (§1) A cell strain: Hepatoma HepG2, cervical cancer Hela, lung cancer A549, breast cancer MCF7 cell line and human normal liver cell HL7702 were purchased from Wuhan Boster Biological Technology Co., Ltd.;
(§2) HepG2, Hela, A549, MCF 7 cells in logarithmic growth phase and human normal hepatocytes HL7702 were centrifuged at 1500 rpm for 5 min, and the supernatant was discarded; the cells were digested with a suitable amount of trypsin, and then suspended with a suitable amount of culture medium (HepG2, Hela and HL7702 cells were suspended with penicillin-streptomycin RPMI1640 culture medium containing 10% calf serum, A549 and MCF 7 cells with penicillin-streptomycin high glucose DMEM culture medium containing 10% calf serum, to adjust the cell concentration to 1.5×10^4 cells/well, the cells were seeded in 96-well plates, and the following experimental groups were set:
(§3) 0.10 mL of the cell suspension was added to each well, and incubated at 37° C., 5% CO2 and saturated humidity for 12 h, and the culture medium was discarded when the cell density was nearly 70%. […] 100 μl of 5 mg/ml MTT was added per well, standing for 4 h at 37° C. 100 μl of DMSO was added to each well, followed by shaking on a shaker for 10 min at 37° C., the absorbance (OD) was measured at 492 nm, and the MTT ratio was calculated as the OD value of drug group/OD value of negative control group.

The test system of test [2] is lung cancer A549. As to conditions: cultured 48 h, MTT. The method, then:
as §1, §2, §3

The subject of test [3] is cervical cancer Hela. As to conditions: cultured 48 h, MTT. Here is the method:
as §1, §2, §3

Test [4] relates to Hepatoma HepG2. As to conditions: cultured 48 h, MTT. The method, then:
as §1, §2, §3

Test [5] has as its system breast cancer MCF7 cell line. As to conditions: cultured 48 h, MTT. The method, then: as §1, §2, §3

Consider “4β-NH-(2-(5-amino-2-methylphenyl)-4-(3-pyridyl) pyrimidine)-4′-demethylepipodophyllotoxin [Compound 38]”, for which the 50% inhibitory concentration (IC50) in test [1] was greater than 100 µM; in test [2], 15.5 ± 2 µM; in test [3], 35.1 ± 5.9 µM; in test [4] it was 29.5 ± 3.2 µM; in test [5], 14.5 ± 3.8 µM.
For “4β-NH-(6-indazolamine)-4′-demethylepipodophyllotoxin [Compound 32]”, the IC50 in test [1] was 17.7 ± 2.2 µM; in test [2], 25.6 ± 3.7 µM; in test [3], 6.4 ± 1.8 µM; in test [4], 19.4 ± 1.5 µM; in test [5], 21.4 ± 5.9 µM.
For “4β-NH-(7-indazolamine)-4′-demethylepipodophyllotoxin [Compound 33]”, the IC50 stood at 29.8 ± 1.9 µM in test [1]; 24.5 ± 5 µM in test [2]; 34 ± 1.1 µM in test [3]; 22.5 ± 2.6 µM in test [4]; 16.4 ± 0.9 µM in test [5].
As to `COc1cc(C2c3cc4c(cc3C(Nc3cccc5c3C(=O)c3ccccc3C5=O)C3COC(=O)C23)OCO4)cc(OC)c1OC` (stereo not drawn) [Compound 1, 4β-NH-(1-aminoanthraquinone) podophyllotoxin], the IC50 in test [1] is greater than 100 µM; in test [2], 0.2 ± 0.01 µM; in test [3] it was 0.7 ± 0.1 µM; in test [4], 0.9 ± 0.05 µM; in test [5], 0.7 ± 0.01 µM.
For the compound `COc1cc(C2c3cc4c(cc3C(Nc3ccc5c(c3)C(=O)c3ccccc3C5=O)C3COC(=O)C23)OCO4)cc(OC)c1OC` (stereo not drawn) [Compound 2, 4β-NH-(2-aminoanthraquinone) podophyllotoxin], the IC50 in test [1] was greater than 100 µM; in test [2], 2.9 ± 0.4 µM; in test [3], 2.5 ± 0.3 µM; in test [4], 9.6 ± 0.8 µM; in test [5] it was 2.9 ± 0.1 µM.
As to `COc1cc([C@@H]2c3cc4c(cc3[C@@H](Nc3ccc5c(c3N)C(=O)c3ccccc3C5=O)[C@@H]3COC(=O)[C@H]23)OCO4)cc(OC)c1OC` [Compound 3, 4β-NH-(1,2-diaminoanthraquinone) podophyllotoxin], the IC50 in test [1] is greater than 100 µM; in test [2], greater than 100 µM; in test [3], 24.6 ± 3.2 µM; in test [4], 52 ± 8.4 µM; in test [5], 17.5 ± 2.1 µM.
Take `COc1cc(C2c3cc4c(cc3C(Nc3cccc5c3C(=O)c3cccc(N)c3C5=O)C3COC(=O)C23)OCO4)cc(OC)c1OC` (stereo not drawn) [Compound 4, 4β-NH-(1,5-diaminoanthraquinone) podophyllotoxin]: the IC50 in test [1] was greater than 100 µM; in test [2] it was 2.2 ± 0.3 µM; in test [3], 4.6 ± 0.2 µM; in test [4] it was 4.7 ± 0.4 µM; in test [5], 3.4 ± 0.6 µM.
In the case of `COc1cc([C@@H]2c3cc4c(cc3[C@@H](Nc3ccc5c(c3)C(=O)c3ccc(N)cc3C5=O)[C@@H]3COC(=O)[C@H]23)OCO4)cc(OC)c1OC` [Compound 5, 4β-NH-(2,6-diaminoanthraquinone) podophyllotoxin], the IC50 in test [1] is greater than 100 µM; in test [2], greater than 100 µM; in test [3] it was 6.5 ± 0.5 µM; in test [4], 9.1 ± 1.2 µM; in test [5], greater than 100 µM.
On to `COc1cc([C@@H]2c3cc4c(cc3[C@@H](Nc3nc(N)nc5ccccc35)[C@@H]3COC(=O)[C@H]23)OCO4)cc(OC)c1OC` [Compound 6, 4β-NH-(2,4-quinazolinediamine) podophyllotoxin], for which the IC50 in test [1] is 13.8 ± 1.9 µM; in test [2], 14.3 ± 2.3 µM; in test [3], 19.2 ± 1.9 µM; in test [4], greater than 100 µM; in test [5], 24.5 ± 4.4 µM.
As for `COc1cc(C2c3cc4c(cc3C(Nc3ccc5ncccc5c3)C3COC(=O)C23)OCO4)cc(OC)c1OC` (stereo not drawn) [Compound 7, 4β-NH-(6-aminoquinoline) podophyllotoxin], the IC50 is greater than 100 µM in test [1]; 0.3 ± 0.04 µM in test [2]; 0.7 ± 0.03 µM in test [3]; 0.8 ± 0.01 µM in test [4]; 0.6 ± 0.03 µM in test [5].

One may read the IC50 as the point on the concentration scale where inhibition reaches its midpoint. High values mean weaker potency, low ones greater potency.

For the origin of these results see patent US11319328B2 (priority 2017, dated 2022).
